# Key:
# [1] = tested on: MEL murine erythroleukemia cells; set-up: key: +: Compound induces terminal differentiation of the transformed cells; conditions: terminal differentiation; cited from earlier work
# [2] = tested on: Transformed cells; conditions: Table 2, hybrid polar compounds; cited from earlier work
# [3] = tested on: HT-29 human colon cancer cells; set-up: key: +: Compound induces terminal differentiation of the transformed cells; conditions: terminal differentiation; cited from earlier work
# [4] = tested on: HL-60 human promyelocytic leukemia cells; set-up: key: +: Compound induces terminal differentiation of the transformed cells; conditions: terminal differentiation; cited from earlier work
# [5] = tested on: MEL cells; conditions: cited from earlier work; for HG cells, % (% of cells hemoglobinized): Table 3, at optimal concentration; for Opt. [ ], μM (Optimal concentration): Table 3
# [6] = patients; cited from earlier work
# [7] = tested on: Notch-1; test: Notch-1 mRNA and protein expression in MEL cells with HMBA (RT-PCR, western blot); format: cell-based, mouse; conditions: 5 mM HMBA, 4 to 120 hours
# Method: Total RNA was extracted from cells using Trizol reagent (Life Technologies). RT-PCR was performed using the Thermostable Reverse Transcriptase RNA PCR kit (Perkin Elmer) according to manufacturer's instructions. Reactions were amplified in a Perkin Elmer 2400 DNA thermal cycler for 40 cycles of denaturation at 94° C. for 1 minute, annealing and extension at 65° C. for 2 minutes. Amplification of mouse primers specific for Notch-1, SEQ ID NO 1, and SEQ ID NO 2, generated a product of 431 bp. Primers specific for GAPDH: sense 5′ TCACCACCATGGAGAAGG 3′ (SEQ ID NO 3) and antisense 5′ […] 3′ (SEQ ID NO 4) generated a 200 bp product. Negative and positive PCR controls were included in every experiment.
# To determine whether Notch-1 expression is regulated during HMBA-induced MEL cell differentiation, Notch-1 mRNA levels were analyzed in MEL cells set up at equal density and maintained in culture for 4, 8, 24 or 120 hours in the absence or presence of HMBA.
# Notch-1 steady state protein levels were determined by western blot using the polyclonal antibody to Notch-1 (see Example 2). […] Notch-1 steady state protein levels reflected the Notch-1 mRNA pattern of expression. In the presence of HMBA (H), Notch-1 protein was reproducibly evident in the early stages of induction, but gradually disappeared becoming essentially undetectable at 120 hours. […] In uninduced MEL cells (C). […]
# [8] = tested on: MEL cells; test: HMBA-induced MEL cell differentiation, benzidine staining for hemoglobin; format: cell-based, mouse; conditions: 5 mM HMBA, at 120 hours
# Method: Murine erythroleukemia Friend cells (MEL), were maintained in RPMI supplemented with 10% (v/v) heat inactivated fetal bovine serum (HyClone) and 10^−5 M β-mercaptoethanol (β-ME). To induce differentiation, logarithmically growing cells were plated at 1×10^5 cells/ml in medium containing 5 mM HMBA for 120 hours. Cells were passaged to initial density at 72 hours. Cells were assayed for the presence of hemoglobin (Orkin et al., Proc. Natl. Acad. Sci. USA 1975, 72:98-102) by the addition of 1/10 volume of freshly prepared benzidine reagent (0.4% benzidine base, 2% hydrogen peroxide in 12% acetic acid). Benzidine positive cells were counted in modified Neubauer hemocytometers. Each sample was counted by two independent operators, blinded to the cell treatment, and readings were averaged.
# The accumulation of differentiated cells, as determined by benzidine staining, was analyzed during the 120 hours of culture with HMBA (FIG. 8C). There was a steady increase in differentiated cells from 48 hours onwards, that generally reached 35-45%, at 120 hours. […] Cultures were not continued beyond 120 hours, because at this time Notch-1 was reproducibly undetectable.
# [9] = tested on: SY5Y cells; test: SY5Y cell survival with S-oligos and antineoplastic agent (CellTiter 96 AQueous assay); format: cell-based, human; conditions: 50 ng/ml agent, S-oligos 25-100 μM, 1 μM RA
# Method: SY5Y cells, a neuroblastoma cell line (Example 3) were split into 96 well plates and grown in RPMI 1640 with glutamine, 10% FCS and 1 μM RA. At approximately 60% confluence, the phosphorothioate oligonucleotides (S-oligos, antisense, sense and scrambled; see Example 10) at various concentrations (25, 50, 75 and 100 μM) were added. Subsequently, 50 ng/ml of vinblastine (Sigma, St. Louis Mo., V-1377) was added to half of the wells (based on preliminary dose ranging experiments). Cell survival was measured using Promega's CellTiter 96 AQueous assay, which measures viable cells in the well. Paclitaxel (Sigma, St. Louis Mo., T-1912), another member of the […], was also tested (at 50 ng/ml) using this same assay.
# [10] = tested on: thymocytes; test: Apoptosis of thymocytes from Notch-1 antisense transgenic mice after dexamethasone; format: cell-based, mouse; conditions: thymocytes of Notch-1 antisense transgenic mice, pharmacologic dose
# From the text: A pMAMneo plasmid was used which contained the same insert that was used in the pcDNA 3.1 plasmid that was introduced into the MEL cells. This construct expresses the antisense under a MMTV LTR promoter, which has good basal activity and is stimulated by several steroid hormones, such as estradiol, glucocorticoids and androgens. The plasmid was linearized, purified, and microinjected into mouse embryos which were then implanted into surrogate mothers. Pups were screened for the presence of the transgene by PCR on tail snippets. This was done on two separate instances, which generated one positive founder male and one positive founder female containing Notch-1 antisense in their genomes. The founder animals were separately bred into a C57bl6 background for several generations until homozygous positive mice were obtained which bred true (generated all positive litters).
# Pharmacological stimuli were used to induce apoptosis more readily in thymocyte cells from these mice.
# Thymocytes undergo differentiation in the thymus, and normally express Notch-1. Spontaneous apoptosis levels in thymocytes were not increased, but apoptosis and cell death levels were increased about 50% by a pharmacologic dose of dexamethasone, a steroid used for the treatment of T-cell leukemias which induces rapid terminal differentiation and death in thymocytes. […]
# [11] = tested on: MEL cells; test: Late apoptotic fraction (sub-G1 peak) and viability of S-oligo treated MEL cells, flow cytometry; format: cell-based, mouse
# Method: (§1) The late apoptotic fraction (sub-G1 peak) in cells treated with Lin-12 sense, antisense and scrambled S-oligos in the presence of HMBA was determined by flow cytometry (FIG. 11B). […] The Lin-12 antisense S-oligo, but not the sense or scrambled control, decreased expression of Notch-1 protein by 50-75% at 48 hours in three experiments. […] Actin expression was also unaffected by a transfected 1100 bp construct in a plasmid, as discussed below in Example 11.
# Parental MEL or transfected clones were synchronized for cell cycle analysis experiments by density arrest (Ryan et al., Mol. Cell Biol. 1993, 13:711-719). At this point, cells were plated at 1×10^5 cells/ml in medium containing 5 mM HMBA. For the transfected clones, 700 μg/ml G418 was added to the medium. At 16 hours, cells were harvested, fixed in 1% paraformaldehyde for 15 minutes and then 70% ethanol overnight. Cells were resuspended, at constant cell density, in PI solution (50 μg/ml PI (propidum iodide), 0.1% Triton-X-100, 200 μg/ml RNAase A) for 1 hour at room temperature with mixing. […] The DNA content of cells was determined using a Becton Dickinson FACScan flow cytometer. Cells appearing as a sub-G1 peak were scored as apoptotic. In cell cycle analyses, apoptotic and dead cells were gated out and only the viable population was analyzed.
# [12] = tested on: Notch-1 protein; test: Notch-1 protein expression in S-oligo treated MEL cells; format: cell-based, mouse; conditions: at 48 hours, three experiments
# Method: as §1
# Cell pellets were solubilized in hot 2×SDS sample buffer containing 10% β-ME and analyzed by 4% SDS/PAGE. Proteins were electroblotted to Immobilon P (Millipore) in 10 mM CAPS with 10% methanol at 0.75 A for 5 hours. Notch-1 proteins were detected using a chemiluminescence Western blotting kit (Boehringer Mannheim) according to manufacturer's instructions. Relative band intensities were determined by the Kodak 1-D analysis software.
# [13] = tested on: actin; test: Actin levels in S-oligo treated MEL cells; format: cell-based, mouse; conditions: sense, antisense and scrambled compared
# Method: as §1
# [14] = tested on: 3T3-L1 cells; conditions: Garcés et al. 1997; cited from earlier work
compound,measurement,setting,value
CC(=O)NCCCCCCCCNCC=O,Transformed cells MEL,[1],+
same,"Opt. [ ], μM (Optimal concentration)",[2],"5,000 μM"
same,Transformed cells HT-29,[3],+
same,Transformed cells HL-60,[4],+
CNC(=O)CCCCCCCCC(=O)NC,Transformed cells MEL,[1],+
same,"Opt. [ ], μM (Optimal concentration)",[2],"5,000 μM"
same,Transformed cells HT-29,[3],+
same,Transformed cells HL-60,[4],+
O=C(CCCCCCCCC(=O)NO)NO,Transformed cells MEL,[1],+
same,"Opt. [ ], μM (Optimal concentration)",[2],10 to 60 µM
same,Transformed cells HT-29,[3],+
same,Transformed cells HL-60,[4],+
O=C(/C=C/c1ccc(C(=O)NO)cc1)NO,Transformed cells MEL,[1],+
same,"Opt. [ ], μM (Optimal concentration)",[2],10 to 60 µM
same,Transformed cells HT-29,[3],+
same,Transformed cells HL-60,[4],+
O=C(CCCCCNC(=O)Nc1cccc(Cl)c1)NO [3-Cl-UCHA],"HG cells, % (% of cells hemoglobinized)",[5],32%
same,"Opt. [ ], μM (Optimal concentration)",[5],4.0 µM
"O=C(/C=C/c1cccc(C(=O)NO)c1)NO [CBHA, m-carboxycinnamic acid bishydroxamide]","HG cells, % (% of cells hemoglobinized)",[5],73%
same,"Opt. [ ], μM (Optimal concentration)",[5],4.0 µM
"CC(=O)NCCCCCCNC(C)=O [HMBA, hexamethylene bisacetamide]","HG cells, % (% of cells hemoglobinized)",[5],95%
same,"Opt. [ ], μM (Optimal concentration)",[5],"5,000 μM"
same,adverse effect of therapy,[6],can result in thrombocytopenia
same,effect on Notch-1 expression pattern,[7],causing an early increase in Notch-1 followed by a progressive decline
same,differentiated (benzidine-positive) cells,[8],35-45%
CC(=O)O[C@H]1C(=O)[C@@]2(C)[C@H]([C@H](OC(=O)c3ccccc3)[C@]3(O)C[C@H](OC(=O)[C@H](O)[C@@H](NC(=O)c4ccccc4)c4ccccc4)C(C)=C1C3(C)C)[C@]1(OC(C)=O)CO[C@@H]1C[C@@H]2O [Paclitaxel],"cell survival, antineoplastic agent combined with Notch-1 antisense S-oligos",[9],cell survival was decreased to a greater extent
"O=C(CCCCCCC(=O)Nc1ccccc1)NO [SAHA, Suberoylanilide hydroxamic acid]","HG cells, % (% of cells hemoglobinized)",[5],68%
same,"Opt. [ ], μM (Optimal concentration)",[5],2.5 µM
O=C(CCCCCCC(=O)NO)NO [SBHA],"HG cells, % (% of cells hemoglobinized)",[5],94%
same,"Opt. [ ], μM (Optimal concentration)",[5],30 µM
CC(/C=C/C(=O)NO)=C\[C@@H](C)C(=O)c1ccc(N(C)C)cc1 [TSA],"HG cells, % (% of cells hemoglobinized)",[5],80%
same,"Opt. [ ], μM (Optimal concentration)",[5],0.075 µM
C[C@@H]1C[C@H]2[C@@H]3CCC4=CC(=O)C=C[C@]4(C)[C@@]3(F)[C@@H](O)C[C@]2(C)[C@@]1(O)C(=O)CO [dexamethasone],increase of apoptosis and cell death levels,[10],about 50%
CC[C@]1(O)C[C@@H]2CN(CCc3c([nH]c4ccccc34)[C@@](C(=O)OC)(c3cc4c(cc3OC)N(C)[C@H]3[C@@](O)(C(=O)OC)[C@H](OC(C)=O)[C@]5(CC)C=CCN6CC[C@]43[C@@H]65)C2)C1 [vinblastine],"cell survival, antineoplastic agent combined with Notch-1 antisense S-oligos",[9],cell survival was decreased to a greater extent
"AGACTGCGTGCAGTTCTTCCAGG (all phosphorothioate, sugars by position and methylation of C not given here) [Lin-12 antisense S-oligo, phosphorothioate antisense oligo for the Lin/Notch region of Notch-1]",late apoptotic fraction (sub-G1 peak),"[11]; 25 μM S-oligo in the presence of HMBA, 120 hours",significantly larger effect than either sense (SEN) or scrambled (SCR) controls
same,"viability (cells within G1, G2/S or M regions)",[11]; S-oligo in the presence of HMBA,parallel decrease in viability
same,decrease of Notch-1 protein expression,[12],50-75%
same,actin levels,[13],No difference in actin levels
"rh11-12: human recombinant Notch-1 EGF-repeats 11 and 12, 6-Histidine tagged, expressed in E. coli",effect on differentiation of 3T3-L1 cells,[14],blocked their differentiation
